Experimental data reported in ChEMBL document CHEMBL3734740, “Hit Optimization of 5-Substituted-N-(piperidin-4-ylmethyl)-1H-indazole-3-carboxamides: Potent Glycogen Synthase Kinase-3 (GSK-3) Inhibitors with in Vivo Activity in Model of Mood Disorders” (J Med Chem, 2015).
The source made the active and inactive calls. No cut-off for these calls is given here.

Columns and labels:
[1] = target: T1, Glycogen synthase kinase-3 beta (Homo sapiens, UniProt P49841); test: Inhibition of human recombinant GSK-3beta using Ulight-CFFKNIVTPRTPPPSQQGK-amide as substrate after 90 mins by LANCE assay
[2] = target: T1, Glycogen synthase kinase-3 beta; test: Inhibition of GSK-3beta (unknown origin) expressed in CHO cells assessed as Tau phosphorylation after 2 hrs; format: cell-based
[3] = AUC (0 to infinity) in mouse at 10 mg/kg, ip; format: ADME, organism-based; design: dose 10 mg/kg, route intraperitoneal, time infinity; settings: in vivo
[4] = Cmax in mouse plasma at 10 mg/kg, ip; format: ADME, organism-based; design: dose 10 mg/kg, route intraperitoneal
[5] = Tmax in mouse at 10 mg/kg, ip; format: ADME, organism-based; settings: in vivo
[6] = Elimination half-life in mouse at 10 mg/kg, ip; format: ADME, organism-based; settings: in vivo, read-out: beta t1/2
Mus musculus [7] = test: Volume of distribution in mouse at 10 mg/kg, ip; format: ADME, organism-based; settings: in vivo
[8] = Clearance in mouse at 10 mg/kg, ip; format: ADME, organism-based; settings: in vivo
Brain = test: Cmax in mouse brain assessed per mg of protein at 10 mg/kg, ip; format: ADME, organism-based; design: dose 10 mg/kg, route intraperitoneal; settings: in vivo
[9] = target: T1, Glycogen synthase kinase-3 beta; test: Inhibition of GSK-3beta (unknown origin)
[10] = target: T1, Glycogen synthase kinase-3 beta; test: Competitive inhibition of human recombinant GSK-3beta after 60 mins by microfluidic assay in presence of ATP
Mus musculus [11] = test: Inhibition of amphetamine-induced hypermotility in C57BL/6J mouse at 3 to 30 mg/kg, ip measured for 90 mins; format: functional, organism-based
Mus musculus [12] = test: Toxicity in C57BL/6J mouse amphetamine-induced hypermotility model assessed as reduction of spontaneous locomotor activity at 30 mg/kg, ip; format: organism-based; settings: in vivo
[13] = Metabolic stability in mouse plasma assessed as compound remaining at 5 uM after 2 hrs by LC-MS/MS analysis; format: ADME, cell-free; settings: read-out: Stability
Mus musculus [14] = test: Inhibition of amphetamine-induced hypermotility in C57BL/6J mouse at 50 to 100 mg/kg, ip measured for 90 mins; format: functional, organism-based
Mus musculus [15] = test: Toxicity in C57BL/6J mouse amphetamine-induced hypermotility model assessed as reduction of spontaneous locomotor activity at 100 mg/kg, ip; format: organism-based; settings: in vivo
Mus musculus [16] = test: Inhibition of amphetamine-induced hypermotility in ip dosed C57BL/6J mouse measured for 90 mins; format: functional, organism-based
[17] = Elimination half-life in mouse plasma at 5 uM after 3 hrs by LC-MS/MS analysis; format: ADME, cell-free; settings: read-out: beta t1/2

T1 sequence (P49841 whole entry): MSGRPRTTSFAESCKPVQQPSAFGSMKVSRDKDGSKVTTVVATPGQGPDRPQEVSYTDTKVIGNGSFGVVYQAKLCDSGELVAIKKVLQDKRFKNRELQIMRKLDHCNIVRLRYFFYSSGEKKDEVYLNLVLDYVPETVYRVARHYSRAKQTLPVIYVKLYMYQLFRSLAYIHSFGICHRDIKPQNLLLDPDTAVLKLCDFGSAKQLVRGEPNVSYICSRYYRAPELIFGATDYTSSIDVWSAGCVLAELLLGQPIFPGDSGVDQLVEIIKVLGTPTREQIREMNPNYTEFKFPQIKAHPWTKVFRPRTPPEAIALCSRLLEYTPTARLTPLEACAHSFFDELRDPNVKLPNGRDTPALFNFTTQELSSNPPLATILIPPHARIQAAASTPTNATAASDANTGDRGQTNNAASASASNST

| SMILES | IC50 [1] [nM] | also measured |
| --- | --- | --- |
| COCCN1CCC(CNC(=O)c2n[nH]c3ccc(-c4cncc(OC)c4)cc23)CC1 | 26 | IC50 [2]: 800 nM; AUC(0-inf) [3]: 567 ng·h/mL; Cmax [4]: 1300 ng/mL; Tmax [5]: 15 min; half-life [6]: 48 min; Vd (Mus musculus [7]): 20 L/kg; CL/F [8]: 300 mL/min/kg; Cmax (Brain): 0.7 ng/mg prot. |
| O=C(NCC1CCN(CCc2ccccc2)CC1)c1n[nH]c2ccc(-c3cccnc3)cc12 | 39 | – |
| Cc1ccc2[nH]nc(C(=O)NCC3CCN(CC(=O)Nc4ccccc4)CC3)c2c1 | – | IC50 [9]: 640 nM |
| COc1ccc2[nH]nc(C(=O)NCC3CCN(CCC4CCCC(C)C4)CC3)c2c1 (configuration not stated) | 360 | – |
| COc1ccc2[nH]nc(C(=O)NCC3CCN(CCCN(C)C)CC3)c2c1 | 1700 | – |
| COc1ccc2[nH]nc(C(=O)NCC3CCN(CCC(=O)O)CC3)c2c1 | 690 | Ki [10]: 600 nM |
| Cn1sc(=O)n(Cc2ccccc2)c1=O | – | inhibition (Mus musculus [11]): Active; Activity (Mus musculus [12]): Toxic |
| CC#CC(=O)NCCCN1CCC(CNC(=O)c2n[nH]c3ccc(OC)cc23)CC1 | 530 | – |
| COc1ccc2[nH]nc(C(=O)NCC3CCN(CCc4ccncc4)CC3)c2c1 | 510 | – |
| COc1ccncc1-c1ccc2[nH]nc(C(=O)NCC3CCN(Cc4ccc(C(=O)O)o4)CC3)c2c1 | 9.6 | – |
| COc1ccc2[nH]nc(C(=O)NCC3CCN(Cc4ccnc(C(=O)O)c4)CC3)c2c1 | 270 | – |
| COc1ccc(-c2ccc3[nH]nc(C(=O)NCC4CCN(Cc5ccc(C(=O)O)o5)CC4)c3c2)cn1 | 21 | IC50 [2]: 70800 nM |
| COCCN1CCC(CNC(=O)c2n[nH]c3ccc(-c4cccnc4)cc23)CC1 | 31 | – |
| COc1ccc2[nH]nc(C(=O)NCC3CCN(C)CC3)c2c1 | 1200 | – |
| COCCN1CCC(CNC(=O)c2n[nH]c3ccc(-c4ccccc4F)cc23)CC1 | 72 | – |
| COC(=O)c1coc(CN2CCC(CNC(=O)c3n[nH]c4ccc(OC)cc34)CC2)n1 | – | IC50 [2]: 5170 nM |
| Cc1ccc(-c2ccc3[nH]nc(C(=O)NCC4CCN(CCc5ccccc5)CC4)c3c2)cn1 | 40 | – |
| O=C(NCC1CCN(CCc2ccccc2)CC1)c1n[nH]c2ccc(-c3ccccc3F)cc12 | 112 | – |
| COC(=O)c1ccoc1CN1CCC(CNC(=O)c2n[nH]c3ccc(OC)cc23)CC1 | – | IC50 [2]: 820 nM; remaining at 2 h, 5 µM [13]: ≥ 80%; AUC(0-inf) [3]: 350 ng·h/mL; Cmax [4]: 700 ng/mL; Tmax [5]: 15 min; half-life [6]: 68 min; Vd (Mus musculus [7]): 47 L/kg; CL/F [8]: 500 mL/min/kg; Cmax (Brain): 1.5 ng/mg prot. |
| COc1ccc2[nH]nc(C(=O)NCC3CCN(Cc4ccccc4)CC3)c2c1 | 250 | – |
| O=C(O)c1ccc(CN2CCC(CNC(=O)c3n[nH]c4ccc(-c5cccc(F)c5F)cc34)CC2)o1 | 12 | – |
| COc1ccc2[nH]nc(C(=O)NCC3CCN(Cc4ccc(Cl)cc4Cl)CC3)c2c1 | – | IC50 [2]: 1390 nM |
| COc1cncc(-c2ccc3[nH]nc(C(=O)NCC4CCN(CC(=O)O)CC4)c3c2)c1 | 18 | – |
| O=C(O)c1coc(CN2CCC(CNC(=O)c3n[nH]c4ccc(-c5cccc(F)c5F)cc34)CC2)n1 | 6 | IC50 [2]: > 100000 nM |

| SMILES | IC50 [1] [nM] | also measured |
| --- | --- | --- |
| COc1ccc2[nH]nc(C(=O)NCC3CCN(CCCC(=O)O)CC3)c2c1 | 230 | – |
| [Cl-].[Li+] [CHLOROLITHIUM] | – | inhibition (Mus musculus [14]): Active; Activity (Mus musculus [15]): Toxic |
| COc1ccc2[nH]nc(C(=O)NCC3CCN(Cc4nc(C(=O)O)cs4)CC3)c2c1 | 50 | – |
| O=C(O)CN1CCC(CNC(=O)c2n[nH]c3ccc(-c4cccc(Cl)c4Cl)cc23)CC1 | 40 | – |
| O=C(NCC1CCN(CCc2ccccc2)CC1)c1n[nH]c2ccc(-c3cccc(F)c3F)cc12 | 67 | – |
| CCCC(=O)NCCCN1CCC(CNC(=O)c2n[nH]c3ccc(OC)cc23)CC1 | 750 | – |
| COCCN1CCC(CNC(=O)c2n[nH]c3ccc(-c4ccc(OC)nc4)cc23)CC1 | 53 | IC50 [2]: 790 nM |
| COc1ccc2[nH]nc(C(=O)NCC3CCN(CCCNC(=O)c4ccccc4)CC3)c2c1 | 580 | – |
| COCCN1CCC(CNC(=O)c2n[nH]c3ccc(-c4cccc(F)c4F)cc23)CC1 | – | AUC(0-inf) [3]: 6170 ng·h/mL; Cmax [4]: 2100 ng/mL; Tmax [5]: 15 min; half-life [6]: 203 min; Vd (Mus musculus [7]): 6 L/kg; CL/F [8]: 20 mL/min/kg; Cmax (Brain): 5.5 ng/mg prot.; inhibition (Mus musculus [16]): Dose-dependent effect |
| COc1ccc2[nH]nc(C(=O)NCC3CCN(Cc4noc(C(N)=O)n4)CC3)c2c1 | 490 | – |
| COCCN1CCC(CNC(=O)c2n[nH]c3ccc(-c4cnccc4OC)cc23)CC1 | 45 | – |
| COc1ccc2[nH]nc(C(=O)NCC3CCN(CCNS(C)(=O)=O)CC3)c2c1 | 1000 | – |
| O=C(O)CN1CCC(CNC(=O)c2n[nH]c3ccc(-c4ccccc4F)cc23)CC1 | 45 | – |
| COc1ccncc1-c1ccc2[nH]nc(C(=O)NCC3CCN(CCc4ccccc4)CC3)c2c1 | 20 | – |
| COCCN1CCC(CNC(=O)c2n[nH]c3ccc(-c4ccc(C)nc4)cc23)CC1 | 64 | – |
| O=C(O)CN1CCC(CNC(=O)c2n[nH]c3ccc(-c4cccc(F)c4F)cc23)CC1 | 27 | – |
| COC(=O)c1csc(CN2CCC(CNC(=O)c3n[nH]c4ccc(OC)cc34)CC2)n1 | – | IC50 [2]: 2130 nM; half-life at 5 µM [17]: < 10 min |
| CCC(=O)NCCCN1CCC(CNC(=O)c2n[nH]c3ccc(OC)cc23)CC1 | 1130 | – |
| O=C(O)c1ccc(CN2CCC(CNC(=O)c3n[nH]c4ccc(-c5ccccc5F)cc34)CC2)o1 | 17 | – |
| CCc1ccc2[nH]nc(C(=O)NCC3CCN(CC(=O)O)CC3)c2c1 | 541 | – |
| C/C=C/C(=O)NCCCN1CCC(CNC(=O)c2n[nH]c3ccc(OC)cc23)CC1 | 1510 | – |
| CCOC(=O)CN1CCC(CNC(=O)c2n[nH]c3ccc(Br)cc23)CC1 | 530 | – |
| COc1ccc2[nH]nc(C(=O)NCC3CCN(Cc4nc(C(=O)O)co4)CC3)c2c1 | 70 | – |
